Reference: patent US20080255060A1, “Ester Linked Macrolides Useful For The Treatment of Microbial Infections” (priority 2004, published 2008)

What was measured:
Assay in all cases: MIC, standard microtiter broth serial dilution test
Format in all cases: cell-based
[1] = tested on: S. aureus Smith ATCC 0329; settings: Staphylococcus aureus, ATCC0329
[2] = tested on: H. influenzae ATCC 0529; settings: Haemophilus influenzae, ATCC0529
[3] = tested on: M. catarrhalis ATCC 0324; settings: Moraxella catarrhalis, ATCC0324
[4] = tested on: erythromycin resistant strains of Streptococcus pneumoniae
[5] = tested on: S. pneumoniae 0541; settings: Streptococcus pneumoniae
[6] = tested on: S. pyogenes 0542; settings: Streptococcus pyogenes
[7] = tested on: E. faecalis ATCC 0004; settings: Enterococcus faecalis, ATCC0004
[8] = tested on: erythromycin resistant strains of Streptococcus pyogenes

Compound	MIC [1]	MIC [2]	MIC [3]	MIC [4]	MIC [5]	MIC [6]	MIC [7]	MIC [8]
CC[C@H]1OC(=O)[C@H](C)[C@@H](O[C@H]2C[C@@](C)(OC)[C@@H](OC(=O)CCOCCOCCOc3cc4c(=O)c(C(=O)O)cn(C5CC5)c4cc3Cl)[C@H](C)O2)[C@H](C)[C@@H](O[C@@H]2O[C@H](C)C[C@H](N(C)C)[C@H]2O)[C@](C)(O)C[C@@H](C)CN(C)[C@H](C)[C@@H](O)[C@]1(C)O [Example 55, 4″-O-(3-{2-[2-(3-Carboxy-7-chloro-1-cyclopropyl-4-oxo-1,4-dihydro-quinolin-6-yloxy)-ethoxy]-ethoxy}-propionyl)-azithromycin]	≤ 1 µg/mL	≤ 2 µg/mL	≤ 2 µg/mL	≤ 0.25 µg/mL	≤ 1 µg/mL	≤ 1 µg/mL	≤ 1 µg/mL	≤ 0.25 µg/mL
CCO/N=C1\[C@H](C)C[C@@](C)(O)[C@H](OC2O[C@H](C)C[C@H](N(C)C)[C@H]2O)[C@@H](C)[C@H](OC2C[C@@](C)(OC)[C@@H](OC(=O)CCOCCOCCCc3ccc4c(c3)c(=O)c(C(=O)O)cn4CC)[C@H](C)O2)[C@@H](C)C(=O)O[C@H](CC)[C@@](C)(O)[C@H](O)[C@H]1C (stereo partly drawn) [Example 52, 9-Ethyloximino-4″-O-(3-{2-[3-(3-carboxy-1-ethyl-4-oxo-1,4-dihydro-quinolin-6-yl)-propoxy]-ethoxy}-propionyl)-erythromycin A]				≤ 0.25 µg/mL				≤ 0.25 µg/mL
CC[C@H]1OC(=O)[C@H](C)[C@@H](O[C@H]2C[C@@](C)(OC)[C@@H](OC(=O)CCOCCOCCNc3cc4c(=O)c(C(=O)O)cn(C5CC5)c4cc3Cl)[C@H](C)O2)[C@H](C)[C@@H](O[C@@H]2O[C@H](C)C[C@H](N(C)C)[C@H]2O)[C@](C)(O)C[C@@H](C)CN(C)[C@H](C)[C@@H](O)[C@]1(C)O [Example 8, 4″-O-(3-{2-[2-(3-Carboxy-7-chloro-1-cyclopropyl-4-oxo-1,4-dihydro-quinolin-6-ylamino)-ethoxy]-ethoxy}-propionyl)-azithromycin]	≤ 1 µg/mL	≤ 2 µg/mL	≤ 2 µg/mL	≤ 0.25 µg/mL	≤ 1 µg/mL	≤ 1 µg/mL	≤ 1 µg/mL	≤ 0.25 µg/mL
CC[C@H]1OC(=O)[C@H](C)[C@@H](O[C@H]2C[C@@](C)(OC)[C@@H](OC(=O)CCOCCOCCNc3cc4c5c(c3)c(=O)c(C(=O)O)cn5CCC4)[C@H](C)O2)[C@H](C)[C@@H](O[C@@H]2O[C@H](C)C[C@H](N(C)C)[C@H]2O)[C@](C)(OC)C[C@@H](C)C(=O)[C@H](C)[C@@H](O)[C@]1(C)O [Example 33, 4″-O-(3-{2-[2-(6-Carboxy-7-oxo-2,3-dihydro-1H,7H-pyrido[3,2,1-ij]quinolin-9-ylamino)-ethoxy]-ethoxy}-propionyl)-6-O-methyl-erythromycin A]	≤ 1 µg/mL	≤ 2 µg/mL	≤ 2 µg/mL	≤ 0.25 µg/mL	≤ 1 µg/mL	≤ 1 µg/mL	≤ 1 µg/mL	≤ 0.25 µg/mL
CC[C@H]1OC(=O)[C@H](C)[C@@H](OC2C[C@@](C)(OC)[C@@H](OC(=O)CCNCCOCCCc3ccc4c(c3)c(=O)c(C(=O)O)cn4CC)[C@H](C)O2)[C@H](C)[C@@H](OC2O[C@H](C)C[C@H](N(C)C)[C@H]2O)[C@](C)(OC)C[C@@H](C)C(=O)[C@H](C)[C@@H](O)[C@]1(C)O (stereo partly drawn) [Example 37, 4″-O-(3-{2-[3-(3-Carboxy-1-ethyl-4-oxo-1,4-dihydro-quinolin-6-yl)-propoxy]-ethylamino}-propionyl)-6-O-methyl-erythromycin A]	≤ 1 µg/mL	≤ 2 µg/mL	≤ 2 µg/mL	≤ 0.25 µg/mL	≤ 1 µg/mL	≤ 1 µg/mL	≤ 1 µg/mL	≤ 0.25 µg/mL

Now from value to compound:

MIC [1]	MIC [2]	MIC [3]	MIC [4]	MIC [5]	MIC [6]	MIC [7]	MIC [8]	Compound
≤ 1 µg/mL			≤ 0.25 µg/mL	≤ 1 µg/mL	≤ 1 µg/mL	≤ 1 µg/mL	≤ 0.25 µg/mL	CC[C@H]1OC(=O)[C@H](C)[C@@H](O[C@H]2C[C@@](C)(OC)[C@@H](OC(=O)CCOCCOCCNc3cc4c(=O)c(C(=O)O)cn(C5CC5)c4cc3Cl)[C@H](C)O2)[C@H](C)[C@@H](O[C@@H]2O[C@H](C)C[C@H](N(C)C)[C@H]2O)[C@](C)(O)C[C@@H](C)/C(=N\OCOCCOC)[C@H](C)[C@@H](O)[C@]1(C)O [Example 6, 4″-O-(3-{2-[2-(3-Carboxy-7-chloro-1-cyclopropyl-4-oxo-1,4-dihydro-quinolin-6-ylamino)-ethoxy]-ethoxy}-propionyl)-roxythromycin]
≤ 1 µg/mL	≤ 2 µg/mL	≤ 2 µg/mL	≤ 0.25 µg/mL	≤ 1 µg/mL	≤ 1 µg/mL	≤ 1 µg/mL	≤ 0.25 µg/mL	CC[C@H]1OC(=O)[C@H](C)[C@@H](O[C@H]2C[C@@](C)(OC)[C@@H](OC(=O)CCOCCOCCNc3ccc4c(c3)c(=O)c(C(=O)O)cn4CC)[C@H](C)O2)[C@H](C)[C@@H](O[C@@H]2O[C@H](C)C[C@H](N(C)C)[C@H]2O)[C@](C)(O)C[C@@H](C)CN(C)[C@H](C)[C@@H](O)[C@]1(C)O [Example 30, 4″-O-(3-{2-[2-(3-Carboxy-1-ethyl-4-oxo-1,4-dihydro-quinoline-6-ylamino)-ethoxy]-ethoxy}-propionyl)-azithromycin]
≤ 1 µg/mL	≤ 2 µg/mL	≤ 2 µg/mL	≤ 0.25 µg/mL	≤ 1 µg/mL	≤ 1 µg/mL	≤ 1 µg/mL	≤ 0.25 µg/mL	CC[C@H]1OC(=O)[C@H](C)[C@@H](OC2C[C@@](C)(OC)[C@@H](OC(=O)CCOCCOCCNc3cc4c5c(c3)c(=O)c(C(=O)O)cn5CCC4)[C@H](C)O2)[C@H](C)[C@@H](O[C@@H]2O[C@H](C)C[C@H](N(C)C)[C@H]2O)[C@](C)(O)C[C@@H](C)CN(C)[C@H](C)[C@@H](O)[C@]1(C)O (stereo partly drawn) [Example 32, 4″-O-(3-{2-[2-(6-Carboxy-7-oxo-2,3-dihydro-1H,7H-pyrido[3,2,1-ij]quinolin-9-ylamino)-ethoxy]-ethoxy}-propionyl)-azithromycin]
≤ 1 µg/mL	≤ 2 µg/mL	≤ 2 µg/mL	≤ 0.25 µg/mL	≤ 1 µg/mL	≤ 1 µg/mL	≤ 1 µg/mL	≤ 0.25 µg/mL	CC[C@H]1OC(=O)[C@H](C)[C@@H](O[C@H]2C[C@@](C)(OC)[C@@H](OC(=O)CCOCCOCCNc3ccc4c(c3)c(=O)c(C(=O)O)cn4C3CC3)[C@H](C)O2)[C@H](C)[C@@H](O[C@@H]2O[C@H](C)C[C@H](N(C)C)[C@H]2O)[C@](C)(O)C[C@@H](C)CN(C)[C@H](C)[C@@H](O)[C@]1(C)O [Example 11, 4″-O-(3-{2-[2-(3-Carboxy-1-cyclopropyl-4-oxo-1,4-dihydro-quinolin-6-ylamino)-ethoxy]-ethoxy}-propionyl)-azithromycin]
≤ 1 µg/mL	≤ 2 µg/mL	≤ 2 µg/mL	≤ 0.25 µg/mL	≤ 1 µg/mL	≤ 1 µg/mL	≤ 1 µg/mL	≤ 0.25 µg/mL	CC[C@H]1OC(=O)[C@H](C)[C@@H](O[C@H]2C[C@@](C)(OC)[C@@H](OC(=O)CCOCCOCCCc3ccc4c(c3)c(=O)c(C(=O)O)cn4CC)[C@H](C)O2)[C@H](C)[C@@H](OC2O[C@H](C)C[C@H](N(C)C)[C@H]2O)[C@](C)(O)C[C@@H](C)CN(C)[C@H](C)[C@@H](O)[C@]1(C)O (stereo partly drawn) [Example 49, 4″-O-(3-{2-[3-(3-carboxy-1-ethyl-4-oxo-1,4-dihydro-quinolin-6-yl)-propoxy]-ethoxy}-propionyl)-azithromycin]
